Reference: publication PMC7162859 (Scientific Reports, 2020)

Key:
[1] = system: Bcrp; design: method as in PMID 15930306; conditions: read-out: EC50 (Bcrp inhibition); cited from earlier work
[2] = system: orthotopic GBM1A tumors; assay: Pharmacodynamics: monopolar spindle formation in orthotopic GBM1A tumors; type: in vivo, NSG mice; conditions: single ip dose 10 mg/kg each drug; 8 hours
Description: Female NSG mice were intracerebrally injected with 500,000 GBM1A cells at coordinates X = 1.5 mm, Y = 1.5 mm and Z = 2.5 mm relative to the bregma, and tumor growth was monitored by bioluminescence imaging. After 4 weeks (tumor size of about 2 × 10^9 photons/sec), animals were randomized to receive single ip dose of microemulsion vehicle, 10 mg/kg elacridar, 10 mg/kg ispinesib, or a combination of 10 mg/kg ispinesib and 10 mg/kg elacridar (n = 8–10). At 8 hours following treatment, mice were perfused and whole brains were isolated. The samples were processed for immunofluorescence by staining for tubulin with an alpha-tubulin antibody (Cell signaling, Cat#2125) and counter staining with DAPI for visualizing nuclei. Images were scanned and counted for cells with monopolar spindles.

[3] = design: method as in PMID 23334925; conditions: following ip dosing; cited from earlier work
[4] = system: orthotopic GBM1A tumors; type: in vivo; conditions: 10 mg/kg ip each drug once every 4 days for 28 days
Description: Female NSG mice were intracranially implanted with 500,000 luciferase expressing GBM1A cells (transduced with lentiviral particles expressing GFP-Luciferase). After 7 days, animals were randomized into four groups and ip administered with microemulsion vehicle, 10 mg/kg elacridar, 10 mg/kg ispinesib, or a combination of 10 mg/kg ispinesib and 10 mg/kg elacridar, once every 4 days for 28 days (n = 10). The dosing schedule of once every 4 days was based on our previously publication with ispinesib. Tumor growth was monitored by bioluminescence imaging and animals were followed for survival.
The progression of tumor growth was monitored by bioluminescence imaging (BLI) using an IVIS system. Mice that underwent stereotactic injection with GFP-luciferase expressing GBM1A cells were imaged twice a week. Ten minutes prior to imaging, mice were intraperitoneally injected with d-luciferin at 75 mg/kg body weight (3 mL/kg injection volume). Animals were immobilized using 1.5% − 3.0% isoflurane provided by nose cones within the imager and were kept warm using a heated stage set at 37 °C during the imaging procedure. Following imaging for about 5 minutes, animals were removed from the IVIS chamber and monitored until they fully recovered from anesthesia.

[5] = system: P-gp; conditions: read-out: EC50 (P-gp inhibition); cited from earlier work

SMILES: COc1cc2c(cc1OC)CN(CCc1ccc(NC(=O)c3cccc4c(=O)c5cccc(OC)c5[nH]c34)cc1)CC2 [Elacridar, N-[4-[2-(6,7-dimethoxy-3,4-dihydro-1H-isoquinolin-2-yl)ethyl]phenyl]-5-methoxy-9-oxo-10H-acridine-4-carboxamide]
- EC50 [1]: ~0.3 µM
- monopolar spindles in tumor core (tubulin/DNA staining) [2]: normal distribution of DNA
- half-life [3]: 3.2 h
- tumor doubling time (bioluminescence, single exponential fit) ([4]; days 7–37): 6.2 days
- median survival ([4]; vehicle 61 days): 62 days
